The source of these data is US20260144793A1, “METHODS OF TREATING CANCER” (AMGEN INC., priority 2022, published 2026).

Data set [1] can be described thus: Phase 1b study of sotorasib in combination with RMC-4630: pharmacokinetic analysis. Particulars: sotorasib 960 mg QD + RMC-4630 100, 140 or 200 mg; compared with monotherapy studies. In kind it is in vivo, human. The source says: The primary endpoint was safety/tolerability.
Data set [2] concerns phosphorylation of extracellular signal-regulated kinase (ERK). Particulars: preclinical studies; cited from earlier work.
For data set [3], the system named is patients with KRAS G12C-mutated NSCLC, CRC, or other solid tumors. Particulars: N = 27, all RMC-4630 doses with sotorasib 960 mg QD; TRAEs related to the labelled drug (combination: either drug). The source says:
Note that D1D4 indicates administration of Day 1 and Day 4 of each 7 days.
Dose exploration will begin with treating 3-4 subjects at Dose Level 1. The study dose-limiting toxicity (DLT) period is 21 days. Once all subjects enrolled at a certain dose level and schedule are DLT evaluable, a Dose Level Review Team (DLRT) meeting will be convened. For any dose level (including Dose Level 1), and depending on observed safety data, the following may occur: 1) dose escalation to the next highest dose level or 2) additional enrollment to the current dose level or 3) dose de-escalation to the next lowest dose level. Rules for dose-escalation/de-escalation are derived using a modified Toxicity Probability Interval-2 (mTPI-2) model (Guo et al, 2017) with a target toxicity probability of 0.30 (Table 2)
The grading of adverse events will be based on the guidelines provided in the CTCAE version 5.0. […] A subject without a DLT will not be DLT evaluable if the date of decision to end both investigational products is before the completion of the DLT window.
The adverse event grading scale to be used for this study will be the CTCAE v5.0. The investigator is responsible for ensuring that all serious adverse events observed by the investigator or reported by the subject that occur after the signing of the informed consent through the safety follow-up visit or 30 days after last day of dosing interval of investigational product(s)/protocol-required therapies, whichever is later, are reported using the Events CRF. The criteria for grade 4 in the CTCAE grading scale differs from the regulatory criteria for serious adverse events. If adverse events correspond to a grade 4 CTCAE toxicity grading scale criteria (e.g., laboratory abnormality reported as grade 4 without manifestation of life-threatening status), it will be left to the investigator's judgment to also report these abnormalities as serious adverse events. For any adverse event that applies to this situation, comprehensive documentation of the event's severity must be recorded in the subject medical records. If the investigator becomes aware of serious adverse events suspected to be related to investigational products after the protocol-required reporting period is complete, then these serious adverse events will be reported within 24 hours following the investigator's awareness of the event using the Events CRF. Since a study endpoint is overall survival, the investigator will also need to collect/report fatal serious adverse events (regardless of causality) within 24 hours following investigator's awareness of the event. […] However, if the investigator becomes aware of serious adverse events suspected to be related to investigational products, then these serious adverse events will be reported within 24 hours following the investigator's awareness of the event. Serious adverse events reported outside of the protocol-required reporting period will be captured within the safety database as clinical trial cases and handled accordingly based on relationship to investigational product. If further safety related data is needed to fulfill any regulatory reporting requirements for a reportable event, then additional information may need to be collected from the subject's records after the subject ends the study.
The primary endpoint was safety/tolerability. Secondary endpoints included objective response rate per RECIST 1.1 and pharmacokinetics.

The nature of data set [4]: Concomitant administration of sotorasib with acid reducing agents. In kind it is in vivo. Particulars: with proton pump inhibitors (e.g., omeprazole) or H2-receptor antagonists (e.g., famotidine).

On to `C=CC(=O)N1CCN(c2nc(=O)n(-c3c(C)ccnc3C(C)C)c3nc(-c4c(O)cccc4F)c(F)cc23)[C@@H](C)C1` [Sotorasib, 6-fluoro-7-(2-fluoro-6-hydroxyphenyl)-(1M)-1-[4-methyl-2-(propan-2-yl)pyridin-3-yl]-4-[(2S)-2-methyl-4-(prop-2-enoyl)piperazin-1-yl]pyrido[2,3-d]pyrimidin-2 (1H)-one], for which, in data set [1], the “Average exposure in the combination” value is “consistent with distributions observed in monotherapy studies”. Further, the “Inhibition of ERK phosphorylation” value in data set [2] was “inhibited nearly all detectable phosphorylation”. In data set [3], the “AST increased, All Grades, %” value amounted to 4%; the “AST increased, Grade 3, %” value was 4%; the “Ascites, All Grades, %” value turned out to be 4%; the “Ascites, Grade 3, %” value was 4%. In data set [3], the “Colitis, All Grades, %” value amounted to 4%; the “Colitis, Grade 3, %” value was found to be 4%; the “Diarrhea, All Grades, %” value was 26%; the “Diarrhea, Grade 3, %” value came out at 7%. In data set [3], the “Dry mouth, All Grades, %” value amounted to 11%; the “Dyspnea, All Grades, %” value was 4%; the “Dyspnea, Grade 3, %” value was determined as 4%; the “Edema (general, peripheral, periorbital, facial), All Grades, %” value is recorded as 26%. Also, in data set [3], the “Fatigue, All Grades, %” value worked out at 11%; the “Total TRAE, All Grades, %” value was 56%; the “Total TRAE, Grade 3, %” value came to 22%. Moreover, the “Sotorasib concentrations on concomitant administration” value in data set [4] is reported as “decreased sotorasib concentrations”.
